From publication PMC9408991, “Antitumor Effects of a New Retinoate of the Fungal Cytotoxin Illudin M in Brain Tumor Models” (International Journal of Molecular Sciences, 2022)

What was measured:
embryonal neuronal cells = experiment: Long-term development of embryonal neuronal cell cultures; format: cell-based, mouse; conditions: 1 µM, 3, 6 or 8 days
Protocol: NE-4C cells derived from the anterior brain vesicles of p53-deficient 9-day-old mouse embryos were maintained in Minimum Essential Medium (MEM; Sigma Aldrich, Taufkirchen, Germany) supplemented with 5% fetal calf serum (FCS; Invitrogen-Gibco, Carlsbad, CA, USA), 4 mM glutamine (Sigma-Aldrich, Taufkirchen, Germany) and 40 ug/mL gentamycin (Chinoin, Budapest, Hungary). For maintenance, subconfluent cultures were regularly split by trypsinization (0.05 w/v% trypsin in PBS) into poly-L-lysine-coated Petri dishes. Primary astrocytes were isolated from whole brains of neonatal (P0-P3) mice, as described earlier. In brief, meninges were removed, and the tissue pieces were subjected to enzymatic dissociation, using 0.05% w/v trypsin and 0.05% w/v DNase for 10 min at room temperature. The cells were plated onto poly-L-lysine coated plastic surfaces and grown in MEM supplemented with 10% fetal calf serum, 4 mM glutamine and 40 ug/mL gentamycin. Primary neuronal cultures were prepared from embryonic (E15–E16) mouse (CD1) forebrains, as described earlier. In brief, cell suspensions were prepared by mechanical dissociation over a nylon mesh with a pore diameter of 40–42 μm. The cells were seeded at 10^5 cells/cm^2 density onto PLL-coated surfaces. The cultures were maintained in MEM supplemented with 5% FCS, 4 mM glutamine, 40 µg/mL gentamicin and 2.5 μg/mL amphotericin B (Sigma). […]

[1] = Stability in cell medium (DMEM) by HPLC; format: physicochemical; conditions: for Detected compound 2 in medium / Detected free 1 in the sample of 2 / Detected free retinoic acid in the sample of 2: sample of 2 in DMEM
Protocol: The stability of compound 2 in medium (DMEM) was investigated for the indicated times (Table S1). For the preparation of the calibration samples, stock solutions of the test compounds (1 mg /mL) in MeCN were initially made. The sample was diluted to 0.2 mg/mL in a mixture of MeCN/H2O (4:1), whereof 20 µL were taken and injected into the column. For HPLC analysis, a Prontosil 120-5-C18 ace EPS 5 µm column was applied, and MeCN/H2O + 0.1 % glacial acetic acid was used as eluent. Chromatography was run from 7030 to 9010 within 3 […]
Table S1. Stability of compound 2 in medium.
Sample Detected Compounds (in µM)

[2] = Reactivity test with glutathione (enone absorption); format: physicochemical; conditions: 200 µM compound, glutathione in PBS, 2 h, rt
Protocol: In a cell-free activity assay, the reaction of 1 and 2 with glutathione was measured by the decreasing absorption at 340 nm (enone group). Then, 2 µL of the substances (10 mM in DMSO) was mixed with 98 µL glutathione solution ([…] in PBS) in a 96-well plate. The absorption was measured at 340 nm every 30 s for 2 h at rt (Tecan F200). All experiments were performed at least four times.
Figure 1 Time-resolved measurement of the absorption at 340 nm (enone group) of 200 µM 1, 2 or solvent (DMSO) mixed with 6.5 mM glutathione in phosphate-buffered saline (PBS). Data are means ± SD of at least four independent measurements every 30 s.

[3] = test system: non-neural cancer cell lines; experiment: MTT assay, summary over non-neural cancer cell lines; format: cell-based, human; conditions: with the exception of MCF-7^+Topo
Protocol: Non-GBM cells (5 × 10^4 cells/mL, 100 µL/well) were grown in 96-well plates for 24 h. Then, they were treated with various concentrations of the test compounds or vehicle (DMSO, or EtOH) for 72 h at 37 °C. After the addition of 12.5 µL of a 0.5% MTT solution in PBS, the cells were incubated for 3 h at 37 °C so that the water-soluble MTT could be converted to formazan crystals. Then, the plates were centrifuged (300× g, 5 min, 4 °C), the medium withdrawn, and the formazan dissolved in 25 µL of DMSO containing 10% sodium dodecylsulfate (SDS) and 0.6% acetic acid for at least 2 h at 37 °C. In the case of the HL60 cells, after 2 h, the precipitate of formazan crystals was redissolved in a 10% solution of SDS in DMSO containing 0.6% acetic acid.

NE-4C neural stem cells = experiment: Neuronal differentiation of NE-4C neural stem cells (β-tubulin III staining); format: cell-based, mouse
Protocol: NE-4C cells and their differentiated progeny neurons can be immunohistochemically distinguished by the presence of β-tubulin III only in the latter (Figure 3).
Astroglia cells grown on poly-L-lysine-coated glass cover slips were fixed with 4% paraformaldehyde in PBS for 20 min at room temperature and then permeabilized with Triton X-100 (0.1% v/v in PBS; 5 min). Nonspecific antibodies were blocked by incubation with 3% FBS in PBS (room temperature, 1 h). α-GFAP antibody (rabbit, DAKO) was used in a dilution of 1:2000 and was visualized by anti-rabbit IgG Alexa 594 (1:1000). DAPI (4′,6-diamidino-2-phenylindole) was used for nuclei staining. Fluorescence images were captured manually on a Zeiss Axiovert 200 M microscope fitted with 20- to 60-fold zoom and a Zeiss AxioCam MRm digital camera. Further applied antibodies were tubulin III (Sigma T5076), used at a dilution of 1:1000, and Annexin V. Cy3.18 (Sigma A4963).

Structure (SMILES): CC1=C(/C=C/C(C)=C/C=C/C(C)=C/C(=O)O[C@@H]2C3=C(C)C4(CC4)[C@@](C)(O)C(=O)C3=CC2(C)C)C(C)(C)CCC1 [Compound 2, illudin M retinoate]
- development of neuronal cells (embryonal neuronal cells): developed normally
- stability in cell medium ([1]; cell medium): high stability
- Detected compound 2 in medium ([1]; 0 h): 3.92 µM
- Detected free 1 in the sample of 2 ([1]; 0 h): < 0.01 µM
- Detected free retinoic acid in the sample of 2 ([1]; 0 h): < 0.01 µM
- Detected compound 2 in medium ([1]; 20 h): 3.98 µM
- Detected free 1 in the sample of 2 ([1]; 20 h): < 0.01 µM
- Detected free retinoic acid in the sample of 2 ([1]; 20 h): < 0.01 µM
- Detected compound 2 in medium ([1]; 48 h): 3.85 µM
- Detected free 1 in the sample of 2 ([1]; 48 h): < 0.01 µM
- Detected free retinoic acid in the sample of 2 ([1]; 48 h): < 0.01 µM
- Detected compound 2 in medium ([1]; 144 h): 3.94 µM
- Detected free 1 in the sample of 2 ([1]; 144 h): < 0.01 µM
- Detected free retinoic acid in the sample of 2 ([1]; 144 h): < 0.01 µM
- fading of the enone band in the presence of glutathione [2]: stabilization of conjugate 2 compared with 1
- fold less efficacious than 1 [3]: 100 fold
- differentiation of NE-4C stem cells to neurons (NE-4C neural stem cells; 10 nM, β-tubulin III staining): did not elicit differentiation
- neuronal differentiation of NE-4C neural stem cells (NE-4C neural stem cells; concentrations as high as 1 µM): did not induce neuronal differentiation
